Reference: ChEMBL document CHEMBL1121659 (J Med Chem, 1981)
The source made the active and inactive calls. No cut-off for these calls is given here.

Legend:
Mus musculus [1] = test: Compound was evaluated for the neuro toxicity up to 4 hours after doses of <=300 mg/kg administered intraperitoneally; No toxicity; type: organism-based; conditions: in vivo, ip
Mus musculus [2] = test: Compound was evaluated for the dose required for protection against scMET-induced seizures after 4 hours of intraperitoneal administration at the doses< = 0.77-0.90 mM/kg; Inactive; type: functional, organism-based
Mus musculus [3] = test: Compound was evaluated for the dose required for protection against MES-induced seizures after 4 hours of intraperitoneal administration; type: functional
Mus musculus [4] = test: Compound was evaluated for the dose required for protection against scMET-induced seizures after 4 hours of intraperitoneal administration; Inactive; type: functional, organism-based
Mus musculus [5] = test: Compound was evaluated for the dose required for protection against MES-induced seizures after 4 hours of intraperitoneal administration; Inactive; type: functional, organism-based
[6] = Compound was evaluated for the biliary excretion in the anesthetized rats in 6 hours after intravenous doses 10 mg/kg; type: ADME, organism-based; design: dose 10 mg/kg, route intravenous; conditions: rat, bile, read-out: Excretion
[7] = Compound was evaluated for the biliary excretion in the anesthetized rats in 6 hours after intravenous doses 1 mg/kg; type: ADME, organism-based; design: dose 1 mg/kg, route intravenous; conditions: rat, bile, read-out: Excretion
[8] = Compound was evaluated for the biological half-life in rat after a dose of 10 mg/kg given intravenously; type: ADME, organism-based; design: dose 10 mg/kg, route intravenous; conditions: in vivo, iv
Mus musculus [9] = test: Compound was evaluated for the biological half-life in mouse after a dose of 40 mg/kg given intraperitoneally; conditions: in vivo, ip
Mus musculus [10] = test: Compound was evaluated for the dose required for protection against scMET-induced seizures after 4 hours of intraperitoneal administration; type: functional

dose excreted at 6 h [6] [%] | dose excreted at 6 h [7] [%] | half-life [8] [min] | T1/2 (Mus musculus [9]) [min] | SMILES | Neurotoxicity (Mus musculus [1]) | Activity (Mus musculus [2]) | Activity (Mus musculus [3]) [mmol/kg] | Activity (Mus musculus [4]) | Activity (Mus musculus [5]) | Activity (Mus musculus [10])
 |  |  |  | O=C1NC(=O)C(c2ccccc2)(c2cccc(C(F)(F)F)c2)N1 (configuration not stated) | No toxicity | inactive | 0.31 |  |  | 
 |  |  |  | Cc1cccc(C2(c3ccc(C(F)(F)F)cc3)NC(=O)NC2=O)c1 (configuration not stated) | No toxicity |  |  | inactive | inactive | 
28 | 54 | 30 | 990 | O=C1NC(=O)C(c2ccccc2)(c2ccccc2)N1 [PHENYTOIN] |  |  | 0.038 |  |  | inactive
